Source: patent publication US20150368617A1, “METHOD FOR FORMING ENDOTHELIAL CELLS” (Korea Advanced Institute of Science and Technology (KAIST), priority 2012, published 2015)

Tests used:
Assay type in all cases: cell-based, mouse
[1] = test system: αMHC GFP+CMs; assay: Sorted αMHC-GFP+ CMs in feeder-free condition; conditions: Y27632 10 μM
Protocol: Analysis and sorting for CMs were performed at day 10.5. We harvested differentiated Flk1+ MPCs on OP9 cells with 0.25% trypsin-EDTA or dissociation buffer (Invitrogen). Cardiac troponin-T (cTnT)+ and ┌ smooth muscle actin (SMA)+ cells were analyzed after permeabilization using Cytofix/Cytoperm solution (BD Biosciences) for 15 min. After permeabilization, the cells were incubated for 30 min with anti-mouse cTnT (NeoMarkers) monoclonal antibody. After washing in 10% Perm/Wash buffer (BD Biosciences), the cells were incubated for 10 min with Alexa Fluor® 647 anti-mouse IgG (Invitrogen). After washing in 10% Perm/Wash buffer (BD Biosciences), the cells were incubated for 30 min with Cy3-conjugated anti-┌ SMA (clone 1A4, Sigma). We sorted out CMs using ┌ MHC GFP. Sorted Flk1+ MPCs on OP9 cells were harvested with 0.25% trypsin-EDTA or dissociation buffer (Invitrogen) and cells were washed using phosphate buffered saline/10% FBS twice. Dead cells were excluded using 7-aminoactinomycin D (Invitrogen). Then, we sorted out ┌ MHC GFP+CMs and plated on to 0.1% gelatin coated dish in the differentiation medium. The medium was changed every 2 days. Analyses and sorting were performed by FACS Aria II (Beckton Dickinson). Data were analyzed using FlowJo Version 7.5.4 software (TreeStar). […]

[2] = test system: Flk1+ MPCs; assay: CM differentiation from Flk1+ MPCs in OP9 co-culture system
Protocol: EMG7 mouse ESCs which have ┌-myosin heavy chain (MHC) promoter driven enhanced green fluorescent protein (GFP) gene and OP9 cells were a generous gift from Dr. Jun K. Yamashita (Kyoto University). EMG7 ESCs were plated on a 0.1% gelatin coated 60p dish and maintained in a medium (GMEM, Invitrogen) containing 10% knockout serum, 2-mercaptoethanol (Invitrogen), sodium pyruvate (Invitrogen), non-essential amino acid and antibiotics (Invitrogen). leukemia inhibitory factor (LIF), Blasticidin (Invitrogen) and G418 (Invitrogen) were added in the medium at the time of the medium change. OP9 cells were maintained in a medium (alpha MEM, Invitrogen) containing 20% of fetal bovine serum (FBS), 2-mercaptoethanol (Invitrogen), L-glutamine (Invitrogen) and antibiotics (Invitrogen). The medium was changed every 2 days for both EMG7 ESCs and OP9 cells. For induction of Flk1+MPCs, EMG7 ESCs were cultured and plated on a 0.1% gelatin coated 100 p dish in the differentiation medium (alpha MEM, Invitrogen) with contained 10% FBS, 2-mercaptoethanol (Invitrogen), L-glutamine (Invitrogen) and antibiotics (Invitrogen) for 4.5 days (96-112 hours). The medium was changed every 2 days. At 4.5 days, differentiated EMG7 ESCs were harvested with 0.025% trypsin-EDTA and antigen recovery was performed in the differentiation medium for 30 minutes in an incubator. Then, cells were washed using phosphate buffered saline/10% FBS and attached with biotin-conjugated anti-mouse Flk1+ antibody (eBioscience) and […] MicroBeads (Miltenyi Biotec). Flk1+ MPCs were sorted by AutoMACS Pro Separator (Miltenyi Biotec). Sorted Flk1+ MPCs were plated onto the mitomycin-C (MMC) (Ag scientific) treated confluent OP9 cells at a density of 1-2×10^4 cells/cm^2 and cultured in the differentiation medium. The medium was changed every 2 days. CsA (a gift from Novartis Pharma, Korea) was treated in sorted Flk1+ MPCs on OP9 cells. CsA was dissolved in dimethyl sulfoxide (DMSO) (Sigma) and diluted 2┌ g/mL in the differentiation medium at the time of medium change. 10┌ M of Y27632 (purchased from Calbiochem) were treated in sorted Flk1+MPCs on OP9 cells and sorted MHC GFP+CMs at the time of medium change. Analysis and sorting for CMs were performed at day 10.5. We harvested differentiated Flk1+ MPCs on OP9 cells with 0.25% trypsin-EDTA or dissociation buffer (Invitrogen). Cardiac troponin-T (cTnT)+ and ┌ smooth muscle actin (SMA)+ cells were analyzed after permeabilization using Cytofix/Cytoperm solution (BD Biosciences) for 15 min. After permeabilization, the cells were incubated for 30 min with anti-mouse cTnT (NeoMarkers) monoclonal antibody. […] Data were analyzed using FlowJo Version 7.5.4 software (TreeStar).

[3] = test system: ICAM2+ ECs; assay: Apoptosis assay (Annexin V/PI) in ICAM2+ ECs
Protocol: FIGS. 15A-15D. ROCK suppression continuously promotes the expansion of ECs. ICAM2+ ECs were further incubated with PBS (Control), Y27632 (10┌ M), VEGF-A (50 ng/ml; VA) or Y27632 (10┌ M) plus VEGF-A (50 ng/ml) for 2 days, and analyses were performed at day 8.5. (FIG. 15A) Representative FACS analysis showing cell cycle in ICAM2+ ECs at 12 hrs. (FIG. 15B) % of ICAM2+ ECs under each phase of cell cycle at 12 hrs. Each group, n=3. *p<0.01 versus Control; ^#p<0.01 versus VEGF-A. (FIG. 15C) Representative FACS analysis of Annexin V+/PI− apoptotic ECs. (FIG. 15D) % of Annexin V+/PI− ECs. Each group, n=3. *p<0.01 versus Control.
Apoptosis assay was performed as previously described. To determine the cell cycle, BrdU/7-AAD cell cycle analysis was performed according to the manufacturer's instructions (BD Pharmingen™). Briefly, cells were incubated with BrdU (1 mM) for 1 hr, dissociated with dissociation buffer, and stained with anti-CD144 antibody. The cells were then fixed, permeabilized, and fixed once more, followed by 1 hr incubation with DNase I (200 U) at 37┌ C. After incubation with FITC-conjugated anti-BrdU antibody for 20 min at RT, the cells were stained with 7-AAD. The cells were analyzed by FACS Aria II and the data were analyzed using FlowJo software.

[4] = Y27632 10 μM plus CsA vs CsA only, day 10.5

C[C@@H](N)[C@H]1CC[C@H](C(=O)Nc2ccncc2)CC1 [Y27632]
self-beating CMs compared to control ([1]; day 12.5): much more self-beating CMs
area of self-beating CMs compared control ([1]; day 14.5, confluent state): ~2.8 fold
area of self-beating CMs ([2]; Y27632 10 μM plus CsA 2 μg/mL): strikingly increased
increase of cTnT+ CMs compared to control CsA only ([2]; Y27632 10 μM plus CsA 2 μg/mL, 6 days): ~1.9 fold
increase of area of cTnT+ CMs [2, 4]: ~2.3 fold
increase of area of αMHC GFP+ CMs [2, 4]: ~1.7 fold
apoptosis of ECs [3]: mildly inhibited
